{"source": "paper PMC9087011", "about": "(Clinical Pharmacology and Therapeutics, 2022)", "key": {"clinical": {"assay": "clinical", "settings": "human, in vivo"}, "[1]": {"test_system": "cytochrome P450 3A4 (CYP3A4)", "settings": "cited from earlier work"}, "[2]": {"settings": "500 mg single dose, fasted, no ritonavir; individual values (N2=2)"}, "[3]": {"test_system": "SARS‐CoV‐2 viral replication", "settings": "in vitro EC90 adjusted for plasma protein binding; cited from earlier work"}, "[4]": {"assay": "Overall safety and tolerability", "assay_type": "in vivo, human", "settings": "for Safety and tolerability (overall): SAD, MAD and supratherapeutic cohorts, healthy participants"}, "SARS‐CoV‐2": {"test_system": "SARS‐CoV‐2", "settings": "oral administration; cited from earlier work"}}, "data": [{"smiles": "CC(C)(C)[C@H](NC(=O)C(F)(F)F)C(=O)N1C[C@H]2[C@@H]([C@H]1C(=O)N[C@H](C#N)C[C@@H]1CCNC1=O)C2(C)C", "note": "[Nirmatrelvir]", "values": [{"measurement": "Tmax", "setting": "clinical", "result": 1, "unit": "h"}, {"measurement": "Cmax", "setting": "clinical; 150 mg", "result": 668, "unit": "ng/mL"}, {"measurement": "Tmax", "setting": "clinical; 150 mg", "result": 0.634, "unit": "h"}, {"measurement": "Cmax", "setting": "clinical; 500 mg", "result": 674, "unit": "ng/mL"}, {"measurement": "Tmax", "setting": "clinical; 500 mg", "result": 1, "unit": "h"}, {"measurement": "Metabolism", "setting": "[1]", "result": "primarily metabolized by cytochrome P450 3A4 (CYP3A4)"}, {"measurement": "AUCinf", "setting": "[2]", "result": "5,450 ng hour/mL"}, {"measurement": "t ½", "setting": "[2]", "result": 25.6, "unit": "h"}, {"measurement": "total plasma EC90 (90% inhibition of SARS‐CoV‐2 viral replication)", "setting": "[3]", "result": 0.292, "unit": "µg/mL"}, {"measurement": "Safety and tolerability (overall)", "setting": "[4]", "result": "safe and well‐tolerated"}, {"measurement": "Safety and tolerability (overall)", "setting": "[4]; listed as nirmatrelvir", "result": "no safety concerns were identified"}, {"measurement": "Changes in laboratory values (≥ grade 2), vital sign or ECG measurements", "setting": "[4]; with or without ritonavir", "result": "No clinically meaningful changes"}, {"measurement": "Effect on pulmonary viral titers", "setting": "SARS‐CoV‐2", "result": "dose‐dependent reduction of pulmonary viral titers"}]}]}
